Experiments:
human PBMC = test: Cytokine release, standard human PBMC in vitro test; assay type: cell-based
Excerpt: The combination of avelumab plus anti-4-1BB antibody PF-05082566 and anti-OX40 antibody PF-04518600 has been evaluated for cytokine release using the standard human PBMC in vitro test. The cytokine release assay was completed for PF-05082566 alone and in combination with avelumab and PF-04518600.

clear cell aRCC = details: cited from earlier work; for median PFS (mPFS): previously untreated patients with clear cell aRCC, axitinib 5 mg BID, single agent

| Compound | cytokine release (human PBMC) | median PFS (mPFS) (clear cell aRCC) [months] | stratified hazard ratio (PFS) (clear cell aRCC; axitinib vs. sorafenib, 95% CI 0.56, 1.05) |
| --- | --- | --- | --- |
| PF-05082566: novel fully human IgG2 monoclonal antibody agonist of 4-1BB | did not show a significant increase in cytokine release | – | – |
| CNC(=O)c1cc(Oc2ccc(NC(=O)Nc3ccc(Cl)c(C(F)(F)F)c3)cc2)ccn1 [sorafenib] | – | 6.5 | – |
| CNC(=O)c1ccccc1Sc1ccc2c(/C=C/c3ccccn3)n[nH]c2c1 [axitinib, N-methyl-2-[3-((E)-2-pyridin-2-yl-vinyl)-1H-indazol-6-ylsulfanyl]-benzamide] | – | 10.1 | 0.77 |

Source: US10869924B2, “PD-L1 antagonist combination treatments” (MERCK PATENT GMBH, priority 2015, dated 2020)
